Experimental data taken from patent US20160095865A1, “APPLICATION OF ENROFLOXACIN SALT IN PREPARATION OF ORAL PREPARATION FOR PIGS” (GUANGZHOU INSIGHTER BIOTECHNOLOGY CO., LTD., priority 2013, published 2016).
Where a name gives a salt, the structure may show the parent alone.

Columns and labels:
[1] = test system: duroc-landrace-yorkshire hybrid pigs; assay: Influence of enrofloxacin base, sodium salt and hydrochloride on palatability of pig feed (Embodiment 2); type: in vivo; settings: compared with blank control group
Procedure: Enrofloxacin base, enrofloxacin sodium and enrofloxacin hydrochloride were respectively added in feed in each group. All the test pigs were synchronously fasted for 12 h before testing. The test pigs in each group were respectively subjected to free feed intake of feed containing enrofloxacin in different forms after the 12 h fast. […] Feed consumption of different test groups was subjected to statistics and the influence of different forms of the enrofloxacin added in the feed on the feed intake of the pigs was evaluated. The pure feed which was not added with the enrofloxacin or the salt thereof was taken as control.

[2] = test system: pathogenic escherichia coli SGD strain; assay: Protection against escherichia coli artificial (challenge) infection in weaned piglets (Embodiment 9); type: in vivo, pigs; settings: for Death rate: challenged control 60; for Incidence rate (%, calculated by diarrhea): challenged control 100
Procedure: The 33-day-old pigs were intramuscularly injected with pathogenic escherichia coli, the diarrhea and deaths of the pigs were observed, continuous observation was performed for one week, the onset and deaths were subjected to statistics, and the protection effects of the enrofloxacin in different forms against the pathogenic escherichia coli in the artificial infection were compared. Pure feed which was not added with the enrofloxacin in any form was taken as a control group, wherein one portion of pigs in the control group were intramuscularly injected with the pathogenic escherichia coli and was taken as the control group without administration but with challenge (the fifth group), and the remainder were not intramuscularly injected with the pathogenic escherichia coli and was taken as the control group without administration and without challenge (the sixth group).

sensitive bacteria = settings: overwhelming majority of strains of sensitive bacteria; cited from earlier work
[3] = Pharmacokinetic research in pigs, plasma concentration by HPLC (Embodiment 8); type: in vivo; settings: piglets
Procedure: Jugular venous blood collection was performed at 30 min, 1 h, 2 h, 4 h, 8 h, 12 h and 24 h after administration. Plasma was separated, the concentration of the enrofloxacin in the plasma in the different test pigs after administration was determined by high-performance liquid chromatography respectively, and whether the difference in the concentration of the enrofloxacin in the plasma in each test group after administration was significant or not and whether the elimination rule of the enrofloxacin in blood was consistent or not was subjected to statistical analysis.

[4] = 100 ppm equivalent fed twice daily through a gastric tube according to feed intake, challenge 2.0 ×10^7 CFU/pig
[5] = 100 ppm in feed, challenge 2.0 ×10^7 CFU/pig i.m., one week

For `CCN1CCN(c2cc3c(cc2F)c(=O)c(C(=O)O)cn3C2CC2)CC1` [enrofloxacin base, enrofloxacin], the “Decline in feed intake” value ([1]; 5 ppm in feed) was 47.2%, the “Decline in feed intake” value ([1]; 25 ppm in feed) was 74.2% and the “Decline in feed intake” value ([1]; 100 ppm in feed) was 93.3%. The Death rate [2, 4] was 0%, the “Incidence rate (%, calculated by diarrhea)” value [2, 4] was 0% and the MIC (sensitive bacteria) was “lower than 1 ug/ml”.

For `CCN1CCN(c2cc3c(cc2F)c(=O)c(C(=O)[O-])cn3C2CC2)CC1.CCN1CCN(c2cc3c(cc2F)c(=O)c(C(=O)[O-])cn3C2CC2)CC1.[Cu+2]` [enrofloxacin copper], the “Plasma concentration (total of enrofloxacin and ciprofloxacin)” value (“Plasma concentration” below) ([3]; 30 min after 10 mg/kg body weight by gastric tube) was 1.417 ± 0.169^A ug/ml, the “Plasma concentration” value ([3]; 1 h after 10 mg/kg body weight by gastric tube) was 2.121 ± 0.198^B ug/ml and the “Plasma concentration” value ([3]; 2 h after 10 mg/kg body weight by gastric tube) was 5.187 ± 0.558^C ug/ml. The “Plasma concentration” value ([3]; 4 h after 10 mg/kg body weight by gastric tube) was 5.465 ± 0.529^D ug/ml, the “Plasma concentration” value ([3]; 8 h after 10 mg/kg body weight by gastric tube) was 2.986 ± 0.234^E ug/ml and the “Plasma concentration” value ([3]; 12 h after 10 mg/kg body weight by gastric tube) was 1.785 ± 0.215^F ug/ml. For the same compound, the “Plasma concentration” value ([3]; 24 h after 10 mg/kg body weight by gastric tube) was 0.294 ± 0.044^G ug/ml, the Death rate [2, 5] was 0% and the “Incidence rate (%, calculated by diarrhea)” value [2, 5] was 0%.

With `CCN1CCN(c2cc3c(cc2F)c(=O)c(C(=O)O)cn3C2CC2)CC1` [enrofloxacin hydrochloride] the “Decline in feed intake” value ([1]; 5 ppm in feed, hydrochloride) was 49.5%, the “Decline in feed intake” value ([1]; 25 ppm in feed, hydrochloride) was 73.4% and the “Decline in feed intake” value ([1]; 100 ppm in feed, hydrochloride) was 93.7%.

For `CCN1CCN(c2cc3c(cc2F)c(=O)c(C(=O)[O-])cn3C2CC2)CC1.[Ag+]` [enrofloxacin silver], the Death rate [2, 5] was 0% and the “Incidence rate (%, calculated by diarrhea)” value [2, 5] was 0%.

With `CCN1CCN(c2cc3c(cc2F)c(=O)c(C(=O)O)cn3C2CC2)CC1` [enrofloxacin sodium] the “Decline in feed intake” value ([1]; 5 ppm in feed) was 50.8%, the “Decline in feed intake” value ([1]; 25 ppm in feed) was 73.1% and the “Decline in feed intake” value ([1]; 100 ppm in feed) was 94.1%.

In the case of `CCN1CCN(c2cc3c(cc2F)c(=O)c(C(=O)[O-])cn3C2CC2)CC1.CCN1CCN(c2cc3c(cc2F)c(=O)c(C(=O)[O-])cn3C2CC2)CC1.[Zn+2]` [enrofloxacin zinc], the Death rate [2, 5] is reported as 0% and the “Incidence rate (%, calculated by diarrhea)” value [2, 5] is reported as 0%.
